US5672715A, “Herbicidal substituted 3-aryl-pyrazoles” (Monsanto Company, priority 1995, dated 1997)

Assays:
Format in all cases: in vivo
Green Foxtail [1] = test: post-emergence herbicide test; settings: Setaria viridis, post-emergence, 0.25 lb/A; read-out: % plant inhibition
Method in brief: (§1)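 Percent inhibition of each species scored after post-emergence spraying of two- to three-week-old greenhouse plants. Spray solution carried about 0.4% by volume emulsifier, delivered by atomizer at 170.3 kPa (10 psig) and 1870 L/Ha total volume.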

Barnyardgrass [2] = test: post-emergence herbicide test; settings: Echinochloa crus-galli, post-emergence, 0.25 lb/A; read-out: % plant inhibition
Method in brief: as §1

Velvetleaf [3] = test: post-emergence herbicide test; settings: Abutilon theophrasti, post-emergence, 0.25 lb/A; read-out: % plant inhibition
Method in brief: as §1

Downy Brome [4] = test: post-emergence herbicide test; settings: Bromus tectorum, post-emergence, 0.25 lb/A; read-out: % plant inhibition
Method in brief: as §1

Cocklebur [5] = test: post-emergence herbicide test; settings: Xanthium strumarium, post-emergence, 0.25 lb/A; read-out: % plant inhibition
Method in brief: as §1

Seedling Johnsongrass [6] = test: post-emergence herbicide test; settings: Sorghum halepense, post-emergence, 0.25 lb/A; read-out: % plant inhibition
Method in brief: as §1

Wild Oats [7] = test: post-emergence herbicide test; settings: Avena fatua, post-emergence, 0.25 lb/A; read-out: % plant inhibition
Method in brief: as §1

Common Chickweed [8] = test: post-emergence herbicide test; settings: post-emergence, 0.25 lb/A; read-out: % plant inhibition
Method in brief: as §1

Rape [9] = test: post-emergence herbicide test; settings: post-emergence, 0.25 lb/A; read-out: % plant inhibition
Method in brief: as §1

Bedstraw Catchweed [10] = test: post-emergence herbicide test; settings: Galium aparine, post-emergence, 0.25 lb/A; read-out: % plant inhibition
Method in brief: as §1

Giant Foxtail [11] = test: post-emergence herbicide test; settings: Setaria faberi, post-emergence, 0.25 lb/A; read-out: % plant inhibition
Method in brief: as §1

Soybean [12] = test: post-emergence herbicide test; settings: Glycine max, post-emergence, 0.25 lb/A; read-out: % plant inhibition
Method in brief: as §1

Birdseye Speedwell [13] = test: post-emergence herbicide test; settings: post-emergence, 0.25 lb/A; read-out: % plant inhibition
Method in brief: as §1

Wheat [14] = test: post-emergence herbicide test; settings: Triticum aestivum, post-emergence, 0.25 lb/A; read-out: % plant inhibition
Method in brief: as §1

Morning Glory [15] = test: post-emergence herbicide test; settings: Ipomoea, post-emergence, 0.25 lb/A; read-out: % plant inhibition
Method in brief: as §1

Corn [16] = test: post-emergence herbicide test; settings: Zea mays, post-emergence, 0.25 lb/A; read-out: % plant inhibition
Method in brief: as §1

Blackgrass [17] = test: post-emergence herbicide test; settings: Alopecurus myosuroides, post-emergence, 0.25 lb/A; read-out: % plant inhibition
Method in brief: as §1

Green Foxtail [18] = test: pre-emergence herbicide test; settings: Setaria viridis, pre-emergence; 0.25 lb/A; read-out: % plant inhibition
Method in brief: (§2)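 Greenhouse pan assay in which seeds lie under a treated topsoil cover; carrier was acetone or water. Inhibition (%) was recorded about 14 days post-treatment.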

Barnyardgrass [19] = test: pre-emergence herbicide test; settings: Echinochloa crus-galli, pre-emergence, 0.25 lb/A; read-out: % plant inhibition
Method in brief: as §2

Velvetleaf [20] = test: pre-emergence herbicide test; settings: Abutilon theophrasti, pre-emergence, 0.25 lb/A; read-out: % plant inhibition
Method in brief: as §2

Downy Brome [21] = test: pre-emergence herbicide test; settings: Bromus tectorum, pre-emergence, 0.25 lb/A; read-out: % plant inhibition
Method in brief: as §2

Cocklebur [22] = test: pre-emergence herbicide test; settings: Xanthium strumarium, pre-emergence, 0.25 lb/A; read-out: % plant inhibition
Method in brief: as §2

Seedling Johnsongrass [23] = test: pre-emergence herbicide test; settings: Sorghum halepense, pre-emergence, 0.25 lb/A; read-out: % plant inhibition
Method in brief: as §2

Wild Oats [24] = test: pre-emergence herbicide test; settings: Avena fatua, pre-emergence, 0.25 lb/A; read-out: % plant inhibition
Method in brief: as §2

Common Chickweed [25] = test: pre-emergence herbicide test; settings: pre-emergence, 0.25 lb/A; read-out: % plant inhibition
Method in brief: as §2

Rape [26] = test: pre-emergence herbicide test; settings: pre-emergence, 0.25 lb/A; read-out: % plant inhibition
Method in brief: as §2

Bedstraw Catchweed [27] = test: pre-emergence herbicide test; settings: Galium aparine, pre-emergence, 0.25 lb/A; read-out: % plant inhibition
Method in brief: as §2

Giant Foxtail [28] = test: pre-emergence herbicide test; settings: Setaria faberi, pre-emergence, 0.25 lb/A; read-out: % plant inhibition
Method in brief: as §2

Soybean [29] = test: pre-emergence herbicide test; settings: Glycine max, pre-emergence, 0.25 lb/A; read-out: % plant inhibition
Method in brief: as §2

Birdseye Speedwell [30] = test: pre-emergence herbicide test; settings: pre-emergence, 0.25 lb/A; read-out: % plant inhibition
Method in brief: as §2

Wheat [31] = test: pre-emergence herbicide test; settings: Triticum aestivum, pre-emergence, 0.25 lb/A; read-out: % plant inhibition
Method in brief: as §2

Morning Glory [32] = test: pre-emergence herbicide test; settings: Ipomoea, pre-emergence, 0.25 lb/A; read-out: % plant inhibition
Method in brief: as §2

Corn [33] = test: pre-emergence herbicide test; settings: Zea mays, pre-emergence, 0.25 lb/A; read-out: % plant inhibition
Method in brief: as §2

Blackgrass [34] = test: pre-emergence herbicide test; settings: Alopecurus myosuroides, pre-emergence, 0.25 lb/A; read-out: % plant inhibition
Method in brief: as §2

Cc1c(-c2cc(CS)c(Cl)cc2F)nn(C)c1C(F)(F)F [Compound 30]
inhibition at 280.212 g/ha (Green Foxtail [1]): 65% | inhibition at 280.212 g/ha (Barnyardgrass [2]): 60% | inhibition at 280.212 g/ha (Velvetleaf [3]): 85% | inhibition at 280.212 g/ha (Downy Brome [4]): 25% | inhibition at 280.212 g/ha (Cocklebur [5]): 60% | inhibition at 280.212 g/ha (Seedling Johnsongrass [6]): 70% | inhibition at 280.212 g/ha (Wild Oats [7]): 25% | inhibition at 280.212 g/ha (Common Chickweed [8]): 75% | inhibition at 280.212 g/ha (Rape [9]): 60% | inhibition at 280.212 g/ha (Bedstraw Catchweed [10]): 40% | inhibition at 280.212 g/ha (Giant Foxtail [11]): 20% | inhibition at 280.212 g/ha (Soybean [12]): 65% | inhibition at 280.212 g/ha (Birdseye Speedwell [13]): 98% | inhibition at 280.212 g/ha (Wheat [14]): 15% | inhibition at 280.212 g/ha (Morning Glory [15]): 65% | inhibition at 280.212 g/ha (Corn [16]): 20% | inhibition at 280.212 g/ha (Blackgrass [17]): 30% | inhibition at 280.212 g/ha (Green Foxtail [18]): 98% | inhibition at 280.212 g/ha (Barnyardgrass [19]): 70% | inhibition at 280.212 g/ha (Velvetleaf [20]): 90% | inhibition at 280.212 g/ha (Downy Brome [21]): 5% | inhibition at 280.212 g/ha (Cocklebur [22]): 25% | inhibition at 280.212 g/ha (Seedling Johnsongrass [23]): 95% | inhibition at 280.212 g/ha (Wild Oats [24]): 0% | inhibition at 280.212 g/ha (Common Chickweed [25]): 35% | inhibition at 280.212 g/ha (Rape [26]): 5% | inhibition at 280.212 g/ha (Bedstraw Catchweed [27]): 40% | inhibition at 280.212 g/ha (Giant Foxtail [28]): 25% | inhibition at 280.212 g/ha (Soybean [29]): 20% | inhibition at 280.212 g/ha (Birdseye Speedwell [30]): 50% | inhibition at 280.212 g/ha (Wheat [31]): 0% | inhibition at 280.212 g/ha (Morning Glory [32]): 20% | inhibition at 280.212 g/ha (Corn [33]): 15% | inhibition at 280.212 g/ha (Blackgrass [34]): 20%

COC(=O)CSCc1cc(-c2nn(C)c(C(F)(F)F)c2C)c(F)cc1Cl [Compound 31]
inhibition at 280.212 g/ha (Green Foxtail [1]): 75% | inhibition at 280.212 g/ha (Barnyardgrass [2]): 70% | inhibition at 280.212 g/ha (Velvetleaf [3]): 99% | inhibition at 280.212 g/ha (Downy Brome [4]): 55% | inhibition at 280.212 g/ha (Cocklebur [5]): 99% | inhibition at 280.212 g/ha (Seedling Johnsongrass [6]): 90% | inhibition at 280.212 g/ha (Wild Oats [7]): 35% | inhibition at 280.212 g/ha (Common Chickweed [8]): 95% | inhibition at 280.212 g/ha (Rape [9]): 75% | inhibition at 280.212 g/ha (Bedstraw Catchweed [10]): 70% | inhibition at 280.212 g/ha (Giant Foxtail [11]): 50% | inhibition at 280.212 g/ha (Soybean [12]): 35% | inhibition at 280.212 g/ha (Birdseye Speedwell [13]): 100% | inhibition at 280.212 g/ha (Wheat [14]): 20% | inhibition at 280.212 g/ha (Morning Glory [15]): 80% | inhibition at 280.212 g/ha (Corn [16]): 50% | inhibition at 280.212 g/ha (Blackgrass [17]): 20% | inhibition at 280.212 g/ha (Green Foxtail [18]): 20% | inhibition at 280.212 g/ha (Barnyardgrass [19]): 5% | inhibition at 280.212 g/ha (Velvetleaf [20]): 80% | inhibition at 280.212 g/ha (Downy Brome [21]): 5% | inhibition at 280.212 g/ha (Cocklebur [22]): 15% | inhibition at 280.212 g/ha (Seedling Johnsongrass [23]): 40% | inhibition at 280.212 g/ha (Wild Oats [24]): 5% | inhibition at 280.212 g/ha (Common Chickweed [25]): 25% | inhibition at 280.212 g/ha (Rape [26]): 5% | inhibition at 280.212 g/ha (Bedstraw Catchweed [27]): 30% | inhibition at 280.212 g/ha (Giant Foxtail [28]): 10% | inhibition at 280.212 g/ha (Soybean [29]): 3% | inhibition at 280.212 g/ha (Birdseye Speedwell [30]): 25% | inhibition at 280.212 g/ha (Wheat [31]): 0% | inhibition at 280.212 g/ha (Morning Glory [32]): 45% | inhibition at 280.212 g/ha (Corn [33]): 10% | inhibition at 280.212 g/ha (Blackgrass [34]): 5%

Cc1c(-c2cc(CSCC(C)C)c(Cl)cc2F)nn(C)c1C(F)(F)F [Compound 32]
inhibition at 280.212 g/ha (Green Foxtail [1]): 65% | inhibition at 280.212 g/ha (Barnyardgrass [2]): 35% | inhibition at 280.212 g/ha (Velvetleaf [3]): 85% | inhibition at 280.212 g/ha (Downy Brome [4]): 25% | inhibition at 280.212 g/ha (Cocklebur [5]): 65% | inhibition at 280.212 g/ha (Seedling Johnsongrass [6]): 45% | inhibition at 280.212 g/ha (Wild Oats [7]): 20% | inhibition at 280.212 g/ha (Common Chickweed [8]): 20% | inhibition at 280.212 g/ha (Rape [9]): 50% | inhibition at 280.212 g/ha (Bedstraw Catchweed [10]): 45% | inhibition at 280.212 g/ha (Giant Foxtail [11]): 45% | inhibition at 280.212 g/ha (Soybean [12]): 20% | inhibition at 280.212 g/ha (Birdseye Speedwell [13]): 90% | inhibition at 280.212 g/ha (Wheat [14]): 15% | inhibition at 280.212 g/ha (Morning Glory [15]): 40% | inhibition at 280.212 g/ha (Corn [16]): 15% | inhibition at 280.212 g/ha (Blackgrass [17]): 25% | inhibition at 280.212 g/ha (Green Foxtail [18]): 40% | inhibition at 280.212 g/ha (Barnyardgrass [19]): 5% | inhibition at 280.212 g/ha (Velvetleaf [20]): 25% | inhibition at 280.212 g/ha (Downy Brome [21]): 0% | inhibition at 280.212 g/ha (Cocklebur [22]): 25% | inhibition at 280.212 g/ha (Seedling Johnsongrass [23]): 85% | inhibition at 280.212 g/ha (Wild Oats [24]): 0% | inhibition at 280.212 g/ha (Common Chickweed [25]): 5% | inhibition at 280.212 g/ha (Rape [26]): 5% | inhibition at 280.212 g/ha (Bedstraw Catchweed [27]): 5% | inhibition at 280.212 g/ha (Giant Foxtail [28]): 65% | inhibition at 280.212 g/ha (Soybean [29]): 8% | inhibition at 280.212 g/ha (Birdseye Speedwell [30]): 45% | inhibition at 280.212 g/ha (Wheat [31]): 0% | inhibition at 280.212 g/ha (Morning Glory [32]): 10% | inhibition at 280.212 g/ha (Corn [33]): 5% | inhibition at 280.212 g/ha (Blackgrass [34]): 10%
